“And” between values parts separate entries of the source, which are not always exact repeats. Equal entries are not always repeated.
Assays:
Amyloid β 42 = Amyloid β 42 ELISA, whole brain soluble and insoluble fractions; assay type: in vivo, mouse; parameters: Sup. Fig. 6-6A, individual animal values / Sup. Fig. 6-6B, individual animal values / Sup. Fig. 6-6D, individual animal values / Sup. Fig. 6-6G, individual animal values / Sup. Fig. 6-6H, individual animal values: unit not given here; conditions: for Insoluble amyloid β 42 / Ratio of soluble- to insoluble amyloid β 42 / Soluble amyloid β 42: whole brain, 5xFAD 1 month
Protocol: Following completion of treatment with YB-537 or vehicle for 1 month in drinking water, mice were sacrificed, and brains were quickly removed and placed on ice. Brains were then bisected, and the cerebellum removed. Both hemispheres were then flash frozen in liquid nitrogen, with one hemisphere being used for Amyloid β 42 detection and the other used for WB. For Amyloid β 42 detection the hemisphere was first weighed, and then homogenised on ice using 1 mL of 0.1% Triton X-100 in TBS with complete protease inhibitor (Roche) and phosphatase inhibitor cocktail (Roche). Homogenates were then centrifuged at 100,000g for 1 h at 4° C, and supernatant containing t he soluble fraction of Amyloid β 42 was collected and stored at - 20° C overnight. The pellet, containing insoluble Amyloid β 42 was re - suspended in 1 mL of 5M guanidine HCl, placed on a rocker at RT f or 2h, and then stored overnight at 4° C, with later storage being done at -20° C. The insoluble fraction was then diluted 1:5 in TBS, and centrifuged for 30 min at 13,000g and 4° C. The resulting supernatant was then used to quantify the insoluble fraction. Protein determination was done on both soluble and insoluble fractions thus prepared, using a BCA kit (Thermo). Human Amyloid (aa1- 42) Quantikine ELISA Kit was then used as per the manufacturer’s instructions (R&D Systems, DAB142). Results obtained were then quantified as ng Amyloid β 42 / mL sample / brain hemisphere weight.
Experimental grouping was randomly allocated, in both rats and mice. The size for each group was based on previously published results by means of similar methods, with the use of an online power calculator (https://www.stat.ubc.ca/~rollin/stats/ssize/n2.html). Shapiro- Wilk normality tests were done for the collected data. Anal ysi s of normally distributed dat a was done using par am et ri c t ests (i .e. - unpaired students t-test, one-way ANOVA followed by Tukey’s or Sidak post hoc anal ys i s) and for data not normally

GFAP = experiment: IHC of GFAP (astrocyte activation) in 5xFAD brain sections; assay type: in vivo, mouse; conditions: for Figure 9E, IHC signal: individual animals
Excerpt: Following the behavioral experiments, we assessed brain pathologies associated with AD present in the 5xFAD mice ([37]). Therefore, 5 days following the last behavioral experiment, and 1 month after the start of YB-537 consumption, mice were sacrificed, and coronal brain sections were used for IHC. Since the CA1 region of the hippocampus is affected during AD pathogenesis ([37]), and this brain region is involved in the behavioral paradigms used here, we acquired images of CA1. This was done with an Olympus IX83 confocal microscope using the same settings, antibodies, and exposures in all mice. Images were analyzed using Imaris (Bitplane; see methods). For each mouse, 3 coronal sections were used per antibody. In each section, the same region of CA1 was acquired, using the same image frame size and resolution, at all possible depths of the section — using a Z-stack of the whole section — to allow measurement of the fluorescent antibody marker volume, which was normalized to the brain volume from which it was taken. First, we measured oxidative stress, as indicated by 4-HNE ([38]) (Abcam, ab48506).
Perfused and fixed brain slices were blocked with 10% normal donkey serum (DNS) and 0.2% triton (Sigma-Aldrich) in PBS. Antibodies, including 4-HNE (AbCam, ab48506), Iba1 (AbCam, ab5076), AT-8 (Thermo, MN1020), Amyloid β (AbCam, ab201060), diluted in PBS with 10% DNS, were incubated at 4°C overnight. Secondary antibodies including donkey-anti-goat Alexa Fluor 568 (AbCam, ab175704), donkey-anti-mouse Cy 5 (Jackson Immuno Research, 715-175-151), and donkey-anti-rabbit DyLight 488 (AbCam, ab98488) all diluted 1:500 in PBS with 1% BSA, were applied to the slices at RT for 2 hours the next day. Slices were mounted onto glass slides using DAPI containing Vectashield (H-1200). Images were taken using a confocal microscope (Olympus IX83). Three slices were used per mouse per antibody. Tiling images of the dorsal CA1 and cortex (Bregma: –1.58mm to –2.30mm) were taken using ×20 objective, acquiring a Z-stack of the whole section. Analysis of the images was done blind by an experimenter unaware of the experimental conditions or details, using Imaris (Bitplane) software. A surface reconstruction module was used to extract the data as volumes of the used markers (4-HNE, phospho-tau, amyloid β, GFAP, and Iba1). Marker volume and intensity were normalized to the corresponding brain volume. The normalized value was averaged for each triplicate and presented here. […]
Brains were then briefly removed and placed in chilled, 4% PFA for 48 h, f oll owe d by immersion in 30% sucrose in 0.1 M PBS for a furt her 48 h. Bra i ns wer e t h e n stored at -80°C, until t he y were sliced into 40µm coronal sections usinga Lei ca CM 1950cryostat. Sli ces were then washed x3 in PBS and bl oc ke d for 1 h at RT using 10% normal donkey serum (DNS) and 0.2% triton (Sigma-Aldrich) in PBS. Antibodies, including 4- HNE (1:500, AbCam, ab48506), Iba1 (1:2,000, AbCam, ab5076), GFAP (Abcam, ab53554), phospho- tau (1:1,000, Thermo, MN1020) and amyloid β (1:1,000, AbCam, ab201060) diluted in PBS with 10% DNS were incubated at 4°C overnight. The next day, the slices were washed x3 times in PBS, and secondary antibodies including donkey anti goat A l e x a Fluor 568 (AbCam, ab175704), donkey anti-mouse Cy 5 (Jackson Immuno Research, 715- 175- 151) and donkey anti-rabbit DyLight 488 (AbCam, ab98488) all diluted 1:500 in PBS with 1% BSA, were applied to the slices at RT for 2 h. Following the incubation, the slices were washed x3 times in PBS, mounted onto gl ass slides, were uniformly covered in DAPI containing Vectashield (H-1200) and coverslips were a dde d. […]

## Cc1ccc(-c2cn3cccc(C)c3n2)cc1S(=O)(=O)N1CCNCC1 [YB-537]
Amyloid β 42; 5xFAD whole brain, all animals
  Sup. Fig. 6-6A, individual animal values: 0.36 and 0.35 and 1.82 and 1.07 and 0.33 and 5.68 and 2.65 and 2.02 and 0.56
  Sup. Fig. 6-6B, individual animal values: 31.16 and 54.15 and 11052.63 and 8070.79 and 40.92 and 4330.77 and 6642.89 and 15767.97 and 26.71
Amyloid β 42; 5xFAD whole brain, all animals, ratio of 6-6A to 6-6B values
  Sup. Fig. 6-6C, individual animal values: 0.0114 and 0.0064 and 0.000165 and 0.000133 and 0.0080 and 0.0013 and 0.0004 and 0.000128 and 0.0210
Amyloid β 42; 5xFAD whole brain, first subset of the 6-6A animals (sex not given)
  Sup. Fig. 6-6D, individual animal values: 1.07 and 0.33 and 5.68 and 2.65 and 0.56 and 0.35
Amyloid β 42; 5xFAD whole brain, first subset of the 6-6C animals (sex not given), ratio
  Sup. Fig. 6-6F, individual animal values: 0.000133 and 0.0080 and 0.0013 and 0.0004 and 0.0210 and 0.0064
Amyloid β 42; 5xFAD whole brain, second subset of the 6-6A animals (sex not given)
  Sup. Fig. 6-6G, individual animal values: 2.02 and 0.36 and 1.82
Amyloid β 42; 5xFAD whole brain, second subset of the 6-6B animals (sex not given)
  Sup. Fig. 6-6H, individual animal values: 15767.97 and 31.16 and 11052.63
Amyloid β 42; 5xFAD whole brain, second subset of the 6-6C animals (sex not given), ratio
  Sup. Fig. 6-6I, individual animal values: 0.000128 and 0.0114 and 0.000165
Amyloid β 42; both sexes
  Insoluble amyloid β 42: insignificantly reduced
  Ratio of soluble- to insoluble amyloid β 42: insignificantly increased
  Soluble amyloid β 42: insignificantly reduced
Amyloid β 42; female
  Insoluble amyloid β 42: insignificantly reduced
  Soluble amyloid β 42: insignificantly reduced
Amyloid β 42; male
  Insoluble amyloid β 42: insignificantly reduced
  Ratio of soluble- to insoluble amyloid β 42: insignificantly increased
  Soluble amyloid β 42: insignificantly reduced
GFAP; CA1, 5xFAD 1 month, Females
  GFAP normalized volume (individual mice): 0.0219 and 0.0268 and 0.0382 and 0.0442 and 0.0260 and 0.0233 and 0.0143
  GFAP vs vehicle: unchanged
GFAP; CA1, 5xFAD 1 month, Males
  GFAP normalized volume (individual mice): 0.0303 and 0.0430 and 0.0365 and 0.0251 and 0.0258 and 0.0274 and 0.0223 and 0.0292 and 0.0263
  GFAP vs vehicle: unchanged
GFAP; CA1, 5xFAD 1 month, Males + Females
  GFAP normalized volume (individual mice): 0.0303 and 0.0430 and 0.0365 and 0.0251 and 0.0258 and 0.0442 and 0.0260 and 0.0233 and 0.0143 and 0.0219 and 0.0268 and 0.0382 and 0.0274 and 0.0223 and 0.0292 and 0.0263
GFAP; CA1, 5xFAD 1 month, total population
  GFAP vs vehicle: unchanged
GFAP; Cortex
  Figure 9E, IHC signal: 0.0026 and 0.0035 and 0.0044 and 0.0272 and 0.0046 and 0.0194 and 0.0258 and 0.0029 and 0.0033
GFAP; Hippocampus
  Figure 9E, IHC signal: 0.0259 and 0.0223 and 0.0094 and 0.0129 and 0.0279 and 0.0329 and 0.0343 and 0.0281 and 0.0220
GFAP; cortex, 5xFAD 1 month, females
  GFAP vs vehicle: not significantly reduced
GFAP; cortex, 5xFAD 1 month, males
  GFAP vs vehicle: significantly reduced
GFAP; cortex, 5xFAD 1 month, total population
  GFAP vs vehicle: significantly reduced
